We go through 45 compounds from patent US11248006B2, “Macrocyclic derivative of pyrazol[3,4-d]pyrimidin-3-one, pharmaceutical composition and use thereof” (SHANGHAI DE NOVO PHARMATECH CO., LTD., priority 2017, dated 2022).

What is called IC50 is the midpoint of a concentration-inhibition curve. A high value points to weaker potency.

The subject of the first test is Human osteosarcoma cell line MG63. The experiment in a line: Cell proliferation assay (CCK-8 cell viability). The note with it: CCK-8, 72 hours incubation. In kind it is cell-based. The method, then: In the present disclosure, cell assays were used to assess the biological activity of the compound. Human osteosarcoma cell line MG63 (ATCC CRL-1427) was cultured in a 96-well plate of Dulbecco's Modified Eagle's medium, supplemented with 10% fetal bovine serum and 1% (v/v) L-glutamine, and the cultivation environment was 37° C. and 5% CO2. Compound concentrations ranged from 4.5 nM to 30 μM. The Wee1 inhibitor stock solution was dissolved in DMSO, added to the medium with an indicated concentration and incubated for 72 hours. Negative control cells were only treated with vehicle. In some assays, a known Wee1 inhibitor was added as a positive control. Cell viability was measured using a Cell Counting Kit-8 (CCK-8, Sigma-Aldrich) under the instruction of the product specification. The data was analyzed using Graphpad software to obtain a fitted curve of IC50 values against the compounds.
The compound `CN1CCN(c2ccc(Nc3ncc4c(=O)n5n(c4n3)-c3cccc(n3)OCCCC/C=C/C5)cc2)CC1` [Compound 1-1-1] yielded an IC50 of 2.41 µM.

Still in this test, the particulars now being: Homo sapiens, MG-63, 72 h, CCK-8, 72 hours incubation.
As for `C=CCn1c(=O)c2cnc(Nc3ccc(N4CCN(C)CC4)cc3)nc2n1-c1cccc(C(C)(C)O)n1` [AZD1775, 2-allyl-1-(6-(2-hydroxypropan-2-yl)pyridin-2-yl)-6-((4-(4-methylpiperazin-1-yl)phenyl)amino)-1H-pyrazolo[3,4-d]pyrimidin-3 (2H)-one, reference compound], inhibition was half-maximal at 0.785 µM (IC50).

The compound `CN1CCN(c2cc(Nc3ncc4c(=O)n5n(c4n3)-c3ccc4c(n3)N(CCC/C=C\C5)C(=O)CO4)cc3ccoc23)CC1` [Compound 3-7-17] had an IC50 of 0.27 µM.

Compound `CN1CCN(c2ccc3cc(Nc4ncc5c(=O)n6n(c5n4)-c4ccc5c(n4)N(CCC/C=C\C6)C(=O)CO5)ccc3c2)CC1` [Compound 3-8-1] registered an IC50 of 0.16 µM.

The target in the next test is Wee1 (Homo sapiens (Human), UniProt P30291). In words: Wee1 enzyme catalysis assay (ATP-Glo Max kinase luminescence detection kit). The note with it: Wee1 enzymatic activity, 10 μM ATP, Poly (Lys, Tyr) substrate, 30° C. for 50 minutes. In kind it is biochemical. Here is the method: In the present disclosure, Wee1 enzyme catalysis assay was carried out using the ATP-Glo Max kinase luminescence detection kit (Promega). Kinase activity was assessed by quantitative detection of the amount of ATP retained in the solution following the kinase reaction. The luminescent signal in the assay is proportional to the amount of ATP and inversely proportional to the kinase activity. The concentration of the compound in the assay ranged from 0.5 nM to 30 μM. The compound was dissolved in 10% DMSO, and 5 μL of the solution was added to 50 μL of the reaction, and the concentration of DMSO in the final reaction was 1%. The reaction was carried out at 30° C. for 50 minutes. 40 mM trishydroxymetyl aminomethane, pH 7.4, 10 mM MgCl2, 0.1 mg/ml BSA, 2 mM DTT, 0.1 mg/ml Poly (Lys, Tyr) substrate, 10 μM ATP and Wee1 were contained in the reaction mixture. After the enzymatic reaction, 50 μL of ATP-Glo Max kinase luminescence detection assay solution (Promega) was added and incubated for 15 minutes at room temperature. The luminescent signal was measured using a microplate reader. In some assays, a known Wee1 inhibitor was added as a positive control. Luminance data was analyzed using Graphpad software. The difference between the luminescence intensity in the absence of Wee1 and the luminescence intensity in the presence of Wee1 was defined as 100% activity (Lut−Luc). Using the luminescence intensity signal (Lu) in the presence of the compound, the % activity was calculated as follows: % Activity={(Lut−Lu)/(Lut−Luc)}×100%, wherein, Lu=luminous intensity of the compound Non-linear regression analysis was employed to plot the dose-effect curve of % activity value and the corresponding concentrations for the series of compounds. The equation is Y=B+(TB)/1+10((Log EC50−X)×Hill Slope), Y=% activity, B=minimum activity percentage, T=maximum activity percentage, X=logarithm of compound and Hill slope=slope factor or Hill coefficient. The IC50 value was determined by the concentration of a compound that is required to obtain 50% of the maximum effect.
Chain of Wee1 (P30291 whole entry): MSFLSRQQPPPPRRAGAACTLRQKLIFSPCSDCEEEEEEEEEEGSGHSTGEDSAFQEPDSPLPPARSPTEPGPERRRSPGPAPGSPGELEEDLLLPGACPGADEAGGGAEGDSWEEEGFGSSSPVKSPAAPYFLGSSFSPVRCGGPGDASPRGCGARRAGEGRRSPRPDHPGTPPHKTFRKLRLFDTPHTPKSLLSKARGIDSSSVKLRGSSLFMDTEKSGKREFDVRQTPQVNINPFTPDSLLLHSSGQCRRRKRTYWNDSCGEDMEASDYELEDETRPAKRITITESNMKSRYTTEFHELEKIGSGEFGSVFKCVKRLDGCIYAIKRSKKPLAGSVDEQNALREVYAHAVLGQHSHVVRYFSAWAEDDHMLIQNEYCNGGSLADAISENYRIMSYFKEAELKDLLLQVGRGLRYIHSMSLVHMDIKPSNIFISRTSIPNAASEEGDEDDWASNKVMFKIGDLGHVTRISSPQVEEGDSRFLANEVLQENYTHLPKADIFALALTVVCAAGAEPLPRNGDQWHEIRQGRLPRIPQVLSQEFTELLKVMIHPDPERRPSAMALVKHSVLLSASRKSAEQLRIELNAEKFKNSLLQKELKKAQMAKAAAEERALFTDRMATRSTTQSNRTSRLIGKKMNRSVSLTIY
Take `CN1CCN(c2ccc(Nc3ncc4c(=O)n5n(c4n3)-c3cccc(n3)OCCCC/C=C/C5)cc2)CC1` [Compound 1-1-1]: the midpoint of inhibition, the IC50, lay at 0.0067 µM.

The compound `CN1CCN(c2ccc(Nc3ncc4c(=O)n5n(c4n3)-c3cccc(n3)OCCC/C=C\C5)cc2)CC1` [Compound 1-1-2] showed a half-inhibitory concentration (IC50) of 0.032 µM. Against the preceding compound, the IC50 is about 4.8-fold higher.

Consider `CN1CCN(c2ccc(Nc3ncc4c(=O)n5n(c4n3)-c3cccc(n3)OCC/C=C\C5)cc2)CC1` [Compound 1-1-3], for which the 50% inhibitory concentration (IC50) is 0.0073 µM. Compared with the last compound, the IC50 is about 4.4-fold lower.

For the compound `CN1CCN(c2ccc(Nc3ncc4c(=O)n5n(c4n3)-c3cccc(n3)OCCOC/C=C/C5)cc2)CC1` [Compound 1-1-4], the concentration for half-maximal inhibition (IC50) is 0.0302 µM. This IC50 is about 4.1-fold higher than that of the compound before.

Compound `CN1CCN(c2ccc(Nc3ncc4c(=O)n5n(c4n3)-c3cccc(n3)OCC/C=C\C5)cc2CO)CC1` [Compound 1-1-5] came in with an IC50 of 0.0061 µM. Compared with the last compound, the IC50 is about 5-fold lower.

`COc1cc(Nc2ncc3c(=O)n4n(c3n2)-c2cccc(n2)OCC/C=C\C4)ccc1N1CCN(C)CC1` [Compound 1-1-6] showed a concentration for half-maximal inhibition (IC50) of 0.0068 µM.

As for `CN1Cc2cc(Nc3ncc4c(=O)n5n(c4n3)-c3cccc(n3)OCCCC/C=C\C5)ccc2C2(CC2)C1` [Compound 1-2-2], half-maximal inhibition (IC50) required 0.0103 µM.

`CN1Cc2cc(Nc3ncc4c(=O)n5n(c4n3)-c3cccc(n3)OCC/C=C\C5)ccc2C(C)(C)C1` [Compound 1-3-1]: inhibition was half-maximal at 0.0081 µM (IC50).

`CN1Cc2ccc(Nc3ncc4c(=O)n5n(c4n3)-c3cccc(n3)OCCOC/C=C/C5)cc2C(C)(C)C1` [Compound 1-3-2]: the IC50 amounted to 0.0238 µM.

Compound `CC(=O)N1CCCCC=CCn2c(=O)c3cnc(Nc4ccc(N5CCN(C)CC5)cc4)nc3n2-c2cccc1n2` [Compound 2-1-1] gave an IC50 of 0.0752 µM.

In turn, `CC(=O)N1CCCCC=CCn2c(=O)c3cnc(Nc4ccc(N5CCN(C)CC5)cc4)nc3n2-c2cccc1n2` [Compound 2-1-2] came in with an IC50 of 0.0625 µM.

In turn, `CC(=O)N1CC/C=C\Cn2c(=O)c3cnc(Nc4ccc5c(c4)CN(C)CC5(C)C)nc3n2-c2cccc1n2` [Compound 2-3-1] yielded a concentration for half-maximal inhibition (IC50) of 0.0107 µM.

With `CC(=O)N1CCC/C=C\Cn2c(=O)c3cnc(Nc4ccc5c(c4)CN(C)CC5(C)C)nc3n2-c2cccc1n2` [Compound 2-3-2], the concentration for half-maximal inhibition (IC50) amounted to 0.0164 µM.

`CN1Cc2cc(Nc3ncc4c(=O)n5n(c4n3)-c3ccc4c(n3)N(CCCC/C=C/C5)C(=O)CO4)ccc2C2(CC2)C1` [Compound 3-2-1] yielded a 50% inhibitory concentration (IC50) of 0.021 µM.

In turn, `CCN1Cc2cc(Nc3ncc4c(=O)n5n(c4n3)-c3ccc4c(n3)N(CCC/C=C\C5)C(=O)CO4)ccc2C2(CC2)C1` [Compound 3-2-5] returned a concentration for half-maximal inhibition (IC50) of 0.0077 µM.

`O=C1COc2ccc3nc2N1CCC/C=C\Cn1c(=O)c2cnc(Nc4ccc5c(c4)CN(CC(F)F)CC54CC4)nc2n1-3` [Compound 3-2-8] yielded an IC50 of 0.009 µM.

For `CC1CN(c2ccc(Nc3ncc4c(=O)n5n(c4n3)-c3ccc4c(n3)N(CCC/C=C\C5)C(=O)CO4)cc2)CCN1C` (stereo not shown) [Compound 3-3-3], the half-maximal inhibitory concentration (IC50) amounted to 0.0057 µM.

`CN1C[C@@H]2C[C@H]1CN2c1ccc(Nc2ncc3c(=O)n4n(c3n2)-c2ccc3c(n2)N(CCC/C=C\C4)C(=O)CO3)cc1` [Compound 3-3-4] gave an IC50 of 0.0086 µM.

Compound `COc1cc(Nc2ncc3c(=O)n4n(c3n2)-c2ccc3c(n2)N(CCC/C=C\C4)C(=O)CO3)ccc1N1CCN(C)C(C)C1` (stereo not shown) [Compound 3-3-5] registered an IC50 of 0.0048 µM.

Regarding `CN1CCN(Cc2ccc(Nc3ncc4c(=O)n5n(c4n3)-c3ccc4c(n3)N(CCC/C=C\C5)C(=O)CO4)cc2)CC1` [Compound 3-3-6], the 50% inhibitory concentration (IC50) was found to be 0.0248 µM.

`CN1CCN(c2ccc(Nc3ncc4c(=O)n5n(c4n3)-c3ccc4c(n3)N(CCC/C=C\C5)C(=O)CO4)cc2F)CC1` [Compound 3-3-8] showed an IC50 of 0.0076 µM.

For `Cc1cc(Nc2ncc3c(=O)n4n(c3n2)-c2ccc3c(n2)N(CCCC=CC4)C(=O)CO3)ccc1N1CCN(C)CC1` [Compound 3-3-9], the IC50 was determined as 0.0063 µM.

In the case of `O=C1COc2ccc3nc2N1CCC/C=C\Cn1c(=O)c2cnc(Nc4ccc(N5CCN6CCCC6C5)cc4)nc2n1-3` (stereo not shown) [Compound 3-3-10], the IC50 was 0.0088 µM. The IC50 values of the last two compounds are within 1.5-fold of each other.

`COc1cc(Nc2ncc3c(=O)n4n(c3n2)-c2ccc3c(n2)N(CCC/C=C/C4)C(=O)CO3)ccc1N1CCN(C)CC1` [Compound 3-3-11] showed an IC50 of 0.0065 µM.

The compound `CN1CCN(C)c2ccc(Nc3ncc4c(=O)n5n(c4n3)-c3ccc4c(n3)N(CCC/C=C\C5)C(=O)CO4)cc2C1` [Compound 3-4-1] displayed a half-maximal inhibitory concentration (IC50) of 0.0094 µM. The IC50 values of the last two compounds are within 1.5-fold of each other.

Turning to `CN1CCOc2ccc(Nc3ncc4c(=O)n5n(c4n3)-c3ccc4c(n3)N(CCC/C=C\C5)C(=O)CO4)cc2C1` [Compound 3-4-2], the IC50 stood at 0.0082 µM.

The compound `CN1Cc2cc(Nc3ncc4c(=O)n5n(c4n3)-c3ccc4c(n3)N(CCC/C=C\C5)C(=O)CO4)ccc2C1=O` [Compound 3-6-1] showed an IC50 of 0.0162 µM.

In turn, `CN(C)CCn1ccc2cc(Nc3ncc4c(=O)n5n(c4n3)-c3ccc4c(n3)N(CCC/C=C\C5)C(=O)CO4)ccc21` [Compound 3-7-1] gave an IC50 of 0.0076 µM.

`CN1CCCC(n2ccc3cc(Nc4ncc5c(=O)n6n(c5n4)-c4ccc5c(n4)N(CCC/C=C\C6)C(=O)CO5)ccc32)C1` (stereo not shown) [Compound 3-7-2] gave an IC50 of 0.0182 µM.

Compound `COC(=O)N1CCC(n2ccc3cc(Nc4ncc5c(=O)n6n(c5n4)-c4ccc5c(n4)N(CCC/C=C\C6)C(=O)CO5)ccc32)CC1` [Compound 3-7-4] registered a half-maximal inhibitory concentration (IC50) of 0.0366 µM.

`CC(C)N1CCC(n2ncc3cc(Nc4ncc5c(=O)n6n(c5n4)-c4ccc5c(n4)N(CCC/C=C\C6)C(=O)CO5)ccc32)CC1` [Compound 3-7-14] gave a concentration for half-maximal inhibition (IC50) of 0.0065 µM.

With `CN1Cc2cc(Nc3ncc4c(=O)n5n(c4n3)-c3ccc4c(c3)N(CCC/C=C\C5)C(=O)CO4)ccc2C2(CC2)C1` [Compound 4-1-1], the half-inhibitory concentration (IC50) stood at 0.0051 µM.

In the case of `COc1cc(Nc2ncc3c(=O)n4n(c3n2)-c2ccc3c(n2)N(CCC/C=C\C4)C(=O)CC3)ccc1N1CCN(C)CC1` [Compound 5-1-1], 0.0075 µM corresponded to half-maximal inhibition (IC50).

Take `CN(C)CCn1ccc2cc(Nc3ncc4c(=O)n5n(c4n3)-c3cccc(n3)C(C)(O)CCC/C=C\C5)ccc21` (stereo not shown) [Compound 6-1-1]: half-maximal inhibition (IC50) was put at 0.155 µM.

In turn, `CN1Cc2cc(Nc3ncc4c(=O)n5n(c4n3)-c3ccc4c(n3)N(CCC/C=C\C5)C(=O)C(C)(C)O4)ccc2C2(CC2)C1` [Compound 7-1-1] had a half-inhibitory concentration (IC50) of 0.0129 µM.

Compound `CN1Cc2cc(Nc3ncc4c(=O)n5n(c4n3)-c3ccc4c(n3)N(CCO4)C(=O)CC/C=C\C5)ccc2C(C)(C)C1` [Compound 8-1-1] gave a 50% inhibitory concentration (IC50) of 0.0201 µM.

In turn, `CN1Cc2cc(Nc3ncc4c(=O)n5n(c4n3)-c3ccc4c(n3)N(CCC/C=C\C5)CCO4)ccc2C2(CC2)C1` [Compound 8-2-1] yielded an IC50 of 0.0116 µM.

As to `COc1cc(Nc2ncc3c(=O)n4n(c3n2)-c2ccc3c(n2)N(CCC/C=C\C4)CCO3)ccc1N1CCN(C)CC1` [Compound 8-2-2], the half-inhibitory concentration (IC50) is 0.013 µM.

In turn, `CN1Cc2cc(Nc3ncc4c(=O)n5n(c4n3)-c3ccc4c(n3)N(CCO4)C(=O)OC/C=C\C5)ccc2C2(CC2)C1` [Compound 8-3-1] showed an IC50 of 0.0163 µM.

The compound `CN1Cc2cc(Nc3ncc4c(=O)n5n(c4n3)-c3cccc(n3)N(C)CCC/C=C\C5)ccc2C(C)(C)C1` [Compound 9-1-1] yielded a half-maximal inhibitory concentration (IC50) of 0.0118 µM. This IC50 and that of the compound before are within 1.5-fold of each other.

For `COc1cc(Nc2ncc3c(=O)n4n(c3n2)-c2ccc3c(n2)N(CCCC#CC4)C(=O)CO3)ccc1N1CCN(C)CC1` [Compound 10-1-3], the 50% inhibitory concentration (IC50) was found to be 0.0084 µM.

In turn, `COc1cc(Nc2ncc3c(=O)n4n(c3n2)-c2ccc3c(n2)N(CCC#CC4)C(=O)CO3)ccc1N1CCN(C)CC1` [Compound 10-1-5] came in with an IC50 of 0.0117 µM.
